ChEMBL document CHEMBL3217587, “The discovery of N-1 substituted 2-aminobenzimidazoles as zinc-dependent S. aureus biofilm inhibitors” (Medchemcomm, 2012)
In brackets after ≈: the same amount, converted by molar mass. Activity calls are given as the source filed them. The rule behind the calls is not given here.

Legend:
[1] = system: Staphylococcus aureus; assay: Antimicrobial activity against methicillin-resistant Staphylococcus aureus ATCC BAA-1753 after 16 hrs by broth microdilution method; assay type: functional; conditions: ATCC BAA-1753, 16 h
[2] = system: Staphylococcus aureus; assay: Antimicrobial activity against methicillin-resistant Staphylococcus aureus ATCC 33591 after 16 hrs by broth microdilution method; assay type: functional; conditions: ATCC 33591, 16 h
[3] = system: Staphylococcus aureus; assay: Antimicrobial activity against methicillin-resistant Staphylococcus aureus ATCC 700789 after 16 hrs by broth microdilution method; assay type: functional; conditions: ATCC 700789, 16 h
[4] = system: Staphylococcus aureus; assay: Antimicrobial activity against methicillin-resistant Staphylococcus aureus ATCC BAA-1685 after 16 hrs by broth microdilution method; assay type: functional; conditions: ATCC BAA-1685, 16 h
[5] = system: Staphylococcus aureus; assay: Antimicrobial activity against methicillin-resistant Staphylococcus aureus ATCC 43300 assessed as inhibition of biofilm formation after 24 hrs by crystal violet staining-based microscopy; assay type: functional, organism-based; conditions: ATCC 43300, 24 h
[6] = system: Staphylococcus aureus; assay: Toxicity in methicillin-resistant Staphylococcus aureus ATCC BAA-44 assessed as inhibition of planktonic cell growth at IC50 after 2 to 24 hrs by spectrophotometry; assay type: organism-based
[7] = system: Staphylococcus aureus; assay: Antibiofilm activity against methicillin-resistant Staphylococcus aureus ATCC 43300 assessed as biofilm dispersal at 20 uM after 24 hrs by crystal violet staining-based microscopy; assay type: functional, organism-based
[8] = system: Pseudomonas aeruginosa; assay: Antimicrobial activity against Pseudomonas aeruginosa PA14 after 16 hrs by broth microdilution method; assay type: functional; conditions: PA14, 16 h
[9] = system: Acinetobacter baumannii; assay: Antimicrobial activity against multidrug-resistant Acinetobacter baumannii ATCC BAA-1605 after 16 hrs by broth microdilution method; assay type: functional; conditions: ATCC BAA-1605, 16 h
[10] = system: Staphylococcus aureus; assay: Antimicrobial activity against methicillin-resistant Staphylococcus aureus ATCC BAA-44 assessed as inhibition of biofilm formation after 24 hrs by crystal violet staining-based microscopy; assay type: functional, organism-based; conditions: ATCC BAA-44, 24 h
[11] = system: Staphylococcus aureus; assay: Toxicity in methicillin-resistant Staphylococcus aureus ATCC 43300 assessed as inhibition of planktonic cell growth at IC50 after 2 to 24 hrs by spectrophotometry; assay type: organism-based
[12] = system: Staphylococcus aureus; assay: Antimicrobial activity against methicillin-resistant Staphylococcus aureus ATCC BAA-44 after 16 hrs by broth microdilution method; assay type: functional; conditions: ATCC BAA-44, 16 h
[13] = system: Staphylococcus aureus; assay: Antimicrobial activity against methicillin-resistant Staphylococcus aureus ATCC 43300 after 16 hrs by broth microdilution method; assay type: functional; conditions: ATCC 43300, 16 h
[14] = system: Staphylococcus aureus; assay: Antimicrobial activity against methicillin-susceptible Staphylococcus aureus ATCC 29213 after 16 hrs by broth microdilution method; assay type: functional; conditions: ATCC 29213, 16 h
[15] = system: Staphylococcus aureus; assay: Antimicrobial activity against methicillin-resistant Staphylococcus aureus ATCC BAA-811 after 16 hrs by broth microdilution method; assay type: functional; conditions: ATCC BAA-811, 16 h
[16] = system: Staphylococcus aureus; assay: Antimicrobial activity against methicillin-resistant Staphylococcus aureus ATCC BAA-1556 after 16 hrs by broth microdilution method; assay type: functional; conditions: ATCC BAA-1556, 16 h

Row | SMILES | MIC [1] [µg/mL] | MIC [2] [µg/mL] | MIC [3] [µg/mL] | MIC [4] [µg/mL] | IC50 [5] [µM] | Activity [6] | Activity [7] | MIC [8] [µg/mL] | MIC [9] [µg/mL] | IC50 [10] [µM] | Activity [11] | MIC [12] [µg/mL] | MIC [13] [µg/mL] | MIC [14] [µg/mL] | MIC [15] [µg/mL] | MIC [16] [µg/mL]
1 | CCCCCc1ccc(C(=O)Nc2ccc3c(c2)nc(N)n3CCCCc2ccccc2)cc1.Cl | > 64 | 16 | 32 | 32 | 6.9 | Toxic | inactive | > 64 | > 64 | 14.3 | Toxic | 32 | 32 | 32 | 32 | 16
2 | CCCCCc1ccc(C(=O)Nc2ccc3c(c2)nc(N)n3C(C)C)cc1.Cl | 16 | 16 | 16 | 8 | 7.9 | Non-toxic | inactive | > 64 | 32 | 9.4 | Non-toxic | 16 | 16 | 16 | 16 | 8
3 | CCCCCc1ccc(C(=O)Nc2ccc3[nH]c(N)nc3c2)cc1 | 8 (≈ 24.8 µM) | 16 (≈ 49.6 µM) | 8 (≈ 24.8 µM) | 16 (≈ 49.6 µM) | 13.9 | – | – | 16 (≈ 49.6 µM) | 16 (≈ 49.6 µM) | > 20 | Toxic | 8 (≈ 24.8 µM) | 16 (≈ 49.6 µM) | 16 (≈ 49.6 µM) | 8 (≈ 24.8 µM) | 8 (≈ 24.8 µM)
4 | CCCCCc1ccc(C(=O)Nc2ccc3c(c2)nc(N)n3CCc2ccccn2)cc1.Cl | 32 | 32 | 32 | 64 | 7.2 | Non-toxic | inactive | > 64 | > 64 | 8.9 | Non-toxic | 32 | 64 | 32 | 32 | 32
5 | CCCCCc1ccc(C(=O)Nc2ccc3c(c2)nc(N)n3Cc2ccccc2)cc1.Cl | > 64 | > 64 | > 64 | > 64 | 5.2 | Non-toxic | inactive | > 64 | > 64 | 6.8 | Non-toxic | > 64 | > 64 | > 64 | > 64 | > 64
6 | CCCCCc1ccc(C(=O)Nc2ccc3c(c2)nc(N)n3CCc2ccccc2OC)cc1.Cl | 16 | 16 | 16 | 16 | 5.7 | Toxic | inactive | > 64 | > 64 | 7.3 | Non-toxic | 16 | 16 | 16 | 8 | 16
7 | CCCCCc1ccc(C(=O)Nc2ccc3c(c2)nc(N)n3-c2ccc(CCCCC)cc2)cc1.Cl | 64 | > 64 | > 64 | 64 | > 20 | – | inactive | > 64 | > 64 | > 20 | – | > 64 | > 64 | 64 | > 64 | > 64
8 | CCCCCc1ccc(C(=O)Nc2ccc3c(c2)nc(N)n3Cc2ccc(OC)cc2)cc1.Cl | > 64 | 16 | 16 | 16 | 5.7 | Toxic | inactive | > 64 | > 64 | 11.5 | Non-toxic | 16 | 16 | > 64 | 16 | 16
9 | CCCCCc1ccc(C(=O)Nc2ccc3c(c2)nc(N)n3C)cc1.Cl | 8 | 32 | 64 | 16 | > 20 | – | inactive | 64 | 64 | > 20 | – | 32 | 16 | 16 | 64 | 32
10 | CCCCCc1ccc(C(=O)Nc2ccc3c(c2)nc(N)n3CCCC)cc1.Cl | 8 | 8 | 8 | 8 | 4.5 | Non-toxic | inactive | > 64 | > 64 | 5 | Non-toxic | 8 | 8 | 8 | 8 | 8
11 | CCCCCc1ccc(C(=O)Nc2ccc3c(c2)nc(N)n3CCc2ccc3ccccc3c2)cc1.Cl | 64 | 32 | 32 | 32 | 5.7 | Toxic | inactive | > 64 | > 64 | 14.3 | Toxic | 32 | 32 | 64 | 32 | 32
12 | CCCCCc1ccc(C(=O)Nc2ccc3c(c2)nc(N)n3CCc2c[nH]c3ccccc23)cc1.Cl | 16 | 8 | 16 | 16 | 3.7 | Toxic | inactive | > 64 | > 64 | 4.4 | Toxic | 16 | 16 | 16 | 8 | 16
13 | CCCCCc1ccc(C(=O)Nc2ccc3c(c2)nc(N)n3CCc2cccc(OC)c2)cc1.Cl | 16 | 16 | 16 | 16 | 6.1 | Non-toxic | inactive | > 64 | > 64 | 9.3 | Toxic | 32 | 16 | 16 | 16 | 16
14 | CCCCCCCCCCCCn1c(N)nc2cc(NC(=O)c3ccc(CCCCC)cc3)ccc21.Cl | > 64 | > 64 | > 64 | > 64 | > 20 | – | inactive | > 64 | > 64 | > 20 | – | > 64 | > 64 | > 64 | > 64 | > 64
15 | CCCCCc1ccc(C(=O)Nc2ccc3c(c2)nc(N)n3CCCc2ccccc2)cc1.Cl | 32 | 16 | 32 | 32 | 4.7 | Non-toxic | inactive | > 64 | > 64 | 5.2 | Non-toxic | 32 | 16 | 16 | 16 | 16
16 | CCCCCc1ccc(C(=O)Nc2ccc3c(c2)nc(N)n3C2CCCC2)cc1.Cl | 8 | 8 | 16 | 8 | 3.6 | Non-toxic | inactive | > 64 | > 64 | 4.3 | Non-toxic | 16 | 8 | 16 | 16 | 8
17 | CCCCCc1ccc(C(=O)Nc2ccc3c(c2)nc(N)n3CCc2nc3ccccc3[nH]2)cc1.Cl | > 64 | 64 | > 64 | > 64 | 7 | – | inactive | > 64 | > 64 | > 20 | Non-toxic | > 64 | > 64 | > 64 | > 64 | 64
18 | CCCCCc1ccc(C(=O)Nc2ccc3c(c2)nc(N)n3CCc2cccc3ccccc23)cc1.Cl | > 64 | 64 | > 64 | > 64 | > 20 | – | inactive | > 64 | > 64 | > 20 | – | > 64 | > 64 | > 64 | > 64 | > 64
